Assay results as given in publication PMC12799219, “In vitro and in vivo studies on the activity and selectivity of butoconazole in experimental infection by Trypanosoma cruzi” (Memórias do Instituto Oswaldo Cruz, 2026).
Values joined by “and” are separate entries in the source; they are usually repeats but may differ in a detail not shown here. Equal entries are not always repeated. Where two headings read alike, the source gives them in different places.

Columns and labels:
[1] = test system: T. cruzi intracellular forms (Tulahuen strain); experiment: In vitro activity on intracellular forms of T. cruzi in L929 cells (β-galactosidase/CPRG); format: cell-based, Trypanosoma cruzi; conditions: for EC90: read-out: Activity against T. cruzi intracellular forms EC90
Method: In vitro activity on intracellular forms of T. cruzi - L929 cells previously seeded in 96-well plates (4 x 10^3 cells/well) were infected (ratio of 10 parasites:1 host cell) for 2 h with trypomastigote forms (Tulahuen strain transfected with the β-galactosidase gene, DTU VI).

[2] = Cytotoxicity assay on L929 fibroblasts (AlamarBlue); format: cell-based; conditions: mouse
Method: (§1) Mammalian cell cultures - L929 fibroblast lineage were cultured in Roswell Park Memorial Institute 1640 medium without phenol red (RPMI - Sigma-Aldrich, St. Louis, MO, USA), supplemented with 10% foetal bovine serum (FBS - Cultilab - SP - Brazil) and 2 mM glutamine (Sigma-Aldrich, St. Louis, MO, USA) with pH 7.2 - 7.4, as previously reported.[21] H9C2, cardiomyoblast cultures, were maintained in Dulbecco’s Modified Eagle’s Medium (DMEM) high glucose (4500 mg/L) medium supplemented (Sigma-Aldrich, St. Louis, MO, USA) with 10% FBS (Cultilab - SP -Brazil), 2 mM glutamine (Sigma-Aldrich, St. Louis, MO, USA) and 100 μg/mL penicillin/streptomycin (Sigma-Aldrich, St. Louis, MO, USA).[22] Both cell cultures maintained at 37 °C under an atmosphere of 5% CO2, with weekly dissociation protocol using 0.01% trypsin.
(§2) Cytotoxicity assay - The toxicity of the compounds was evaluated on two mammalian cell lines (L929 and H9C2), as reported.[21] The cells were seeded in 96-well plates (4 x 10^3 cells/well - for L929; 25x10^3 cells/well - for H9C2) and incubated at 37 °C and 5% CO2. The L929 cultures were kept under treatment for 96 and 168 h with a serial dilution (1:2) of the compounds (up to 400 μM). After the treatment periods, the AlamarBlue® reagent (Thermo Fisher Scientific Inc) was added and incubated for 24 h. The H9C2 cultures were also treated in serial dilution up to 200 μM for 24 h. PrestoBlue® reagent (Thermo Fisher Scientific Inc) was added to the cultures and incubated for 3 h. All plates were analysed in the spectrophotometer SpectraMaxM3 (570 and 600 nm) and LC50 values (concentration capable of inducing loss of viability in 50% of the cells) determined.[21] All assays were done at least twice, in triplicates.

in vitro = format: cell-based; conditions: rat, Toxicity on H9C2 mammalian cells LC50
Method: as §1, §2

H9C2 mammalian cells = experiment: cells; format: cell-based; conditions: for EC50: Rattus norvegicus, H9c2, 24 h, read-out: Toxicity on H9C2 mammalian cells pEC50 (converted)
Method: as §1, §2

[3] = test system: T. cruzi intracellular forms (Tulahuen strain) in L929 cell lines; experiment: Washout assay in L929 cultures infected with T. cruzi; format: cell-based, Trypanosoma cruzi; conditions: 10 µM for 168 h, then 168 h drug-free
Method: Washout assays in L929 cultures infected with T. cruzi - L929 cultures were infected with Tulahuen strain as above described and incubated or not for 168 h with 10 µM of BZ and BTZ (37 °C/5% CO2). RPMI culture medium (containing the tested compounds) was replaced every 72 h. Then, the cultures were rinsed with 0.1M PBS, and the drug-free culture medium added for another 168 h, replacing it every 72 h. The number of parasites released into the supernatant and of intracellular forms were analysed by light microscopy and by spectrophotometry (570 nm) after adding CPRG, respectively. The results were expressed as the percentage of reduction in parasite growth compared to untreated cells. BZ was used as a positive treatment control.[25] The data results from two independent experiments done in at least triplicate.

[4] = test system: T. cruzi intracellular forms (Tulahuen strain) in L929 cell lines; experiment: Drug combination (fixed-ratio, FICI) on intracellular forms of T. cruzi; format: cell-based, Trypanosoma cruzi; set-up: Drug concentration (EC50 in fixed-ratio series): unit not given here
Method: Drug combination on intracellular forms of T. cruzi - L929 were seeded in 96-well plates (4 x 10^3 cells/well) and infected with T. cruzi (Tulahuen strain). Predetermined EC50 values were used to determine the top concentrations of the test compounds under fixed ratios ensuring that EC50 fell in the midpoint of a seven-point two-fold dilution series. The fixed ratios were 5:0, 4:1, 3:2, 2:3, 1:4 and 0:5.[24] ^, [25] According to Odds (2003), the Fractional Inhibitory Concentration Indexes (FICI) was calculated by the ratio of the EC50 values of each ratio of the combinations/EC50 of each compound alone. Finally, the sum of the FICIs (ƩFICI) is calculated to classify the interaction nature of the combinations.[26] ΣFICI ≤ 0.5 = Synergism; ΣFICI between 0.5 and 4 = additive (No interaction); ΣFICI > 4 = antagonism. At least two independent experiments were performed in triplicate.

T. cruzi satDNA = experiment: In vivo efficacy by qPCR (T. cruzi satDNA) in blood and heart; set-up: species or system Swiss male mice; conditions: for qPCR on blood samples, parasite DNA amplification: first trial, surviving mice: BZ 25 mg/kg/day, BTZ 45.61 mg/kg/day; for qPCR on blood samples, animals that amplified parasite DNA: second trial, higher doses: BZ 100, BTZ 182.44 mg/kg/day
Method: In vivo efficacy assessments by qPCR evaluations - At the end point, the animals were weighed; euthanised and submitted to cardiac puncture. 500 μL of fresh blood was collected and added to 1 mL of guanidine. The DNA was extracted from 300 μL of guanidine-EDTA blood, using the kit High Pure PCR Template Preparation (Roche diagnostics, Mannhein, Germany), according to the manufacturer's instructions. At the last step of the protocol, DNA was eluted in 100 μL of elution buffer. Also, cardiac tissues were collected, weighed and fragmented using a scalpel, 200 μL of Tissue Lysis Buffer was added and samples immediately placed in Styrofoam with dry ice. Blood and heart tissues were stored in the freezer at […] until analysis by qPCR. Heart tissues were homogenised using a Tissue Homogeneizer (Qiagen). DNA was extracted using the kit High Pure PCR Template Preparation (Roche diagnostics, Mannhein, Germany), according to the manufacturer's instructions for tissue samples. qPCR was done using a TaqMan multiplex assay, targeting T. cruzi […] and mouse GAPDH, as an endogenous control, and to normalise the parasite load. To obtain standard curves, serial dilutions of the DNA were prepared in appropriate plates for the assay. After normalising the results obtained on the samples, the parasite load was expressed as parasite equivalents/mL when evaluated in blood, or parasite equivalents/mg when in mouse tissue. In all trials, positive and negative controls were also tested in parallel.

[5] = Trypanosoma cruzi, TULAHUEN, L929, 96 h, read-out: Activity against T. cruzi intracellular forms EC50, Tulahuen strain in L929, 96 h

Compound	EC50 [1, 5] [nM]	CC50 at 96 h [2] [µM]	CC50 at 168 h [2] [µM]	CC50 at 24 h (in vitro) [µM]	EC50 (H9C2 mammalian cells) [µM]	Washout: reduction in the number of intracellular forms [3]	Washout: reduction in the number of released parasites [3] [%]	FICI ([4]; proportion BTZ:BZ 0:5)	Drug concentration (EC50 in fixed-ratio series) ([4]; proportion BTZ:BZ 1:4)	FICI ([4]; proportion BTZ:BZ 1:4)	Drug concentration (EC50 in fixed-ratio series) ([4]; proportion BTZ:BZ 2:3)	FICI ([4]; proportion BTZ:BZ 2:3)	Drug concentration (EC50 in fixed-ratio series) ([4]; proportion BTZ:BZ 3:2)	FICI ([4]; proportion BTZ:BZ 3:2)	Drug concentration (EC50 in fixed-ratio series) ([4]; proportion BTZ:BZ 4:1)	FICI ([4]; proportion BTZ:BZ 4:1)	FICI ([4]; proportion BTZ:BZ 5:0)	qPCR on blood samples, parasite DNA amplification (T. cruzi satDNA)	qPCR on blood samples, animals that amplified parasite DNA (T. cruzi satDNA)	other results
Clc1ccc(CCC(Cn2ccnc2)Sc2c(Cl)cccc2Cl)cc1 (centres unmarked) [BTZ, butoconazole]	75	23.9 ± 1.1	17.5 ± 3.24	36 ± 0.25	37.2	> 96% and 96 - 98% and 96 ± 4%	100 ± 0	0	0.008	0.26	0.012	0.37	0.006	0.20	0.024	0.76	1	negative (three of three animals)	only one animal	EC50 ([1]; Trypanosoma cruzi, TULAHUEN, L929, 96 h, Tulahuen strain in L929, 96 h, read-out: Activity against T. cruzi intracellular forms pEC50 (converted)): 70.8 nM; EC90 ([1]; Trypanosoma cruzi, Tulahuen strain in L929, 96 h): 3.88 ± 0.45 µM; EC50 ([1]; Tulahuen strain in L929, 96 h, read-out: Activity against T. cruzi intracellular forms EC50): 70 ± 20 nM; EC50 at 168 h [2]: 24 µM; CC50 (H9C2 mammalian cells; rat, 24 h): 36.36 ± 0.25 µM; Drug concentration (EC50 in fixed-ratio series) ([4]; proportion BTZ:BZ 5:0): 0.031; mice with negative qPCR in cardiac samples (T. cruzi satDNA; BTZ 184 mg/kg/day as printed): two of five
O=C(Cn1ccnc1[N+](=O)[O-])NCc1ccccc1 [BZ, benznidazole]	1730 ± 160	> 400	> 200	> 200	> 200	98.6 ± 1.4%	100 ± 0	1	0.138	0.10	0.219	0.15	0.402	0.28	0.738	0.51	0	parasite DNA was amplified in all animals	only one animal	EC90 ([1]; Trypanosoma cruzi, TULAHUEN, L929, 96 h): 7.65 ± 1.69 µM; EC50 ([1]; Trypanosoma cruzi, TULAHUEN, L929, 96 h, read-out: Activity against T. cruzi intracellular forms pEC50, Tulahuen strain in L929, 96 h (converted)): 1740 nM; EC50 at 168 h ([2]; L929 fibroblast cells, printed in the 168 h column, read-out: Cytotoxicity on L929 cells pEC50 (converted)): > 200 µM; Drug concentration (EC50 in fixed-ratio series) ([4]; proportion BTZ:BZ 0:5): 1.445; negative qPCR in cardiac samples (T. cruzi satDNA; BZ 100 mg/kg/day): 100%
